# Measurements: US11274083B2, “Substituted thiophenyl uracils, salts thereof and the use thereof as herbicidal agents” (Syngenta Crop Protection AG, priority 2017, dated 2022)
# Tests used:
# Assay type in all cases: in vivo
# [1] = tested on: Oryza sativa; experiment: Crop compatibility post-emergence, greenhouse pot test
# Outline: (§1)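 Pot-grown plants in sandy loam, greenhouse, sprayed post-emergence at the one-leaf stage (2–3 weeks after sowing) with WP or EC formulations as aqueous spray plus 0.5% additive at 600 L/ha. Damage scored visually after about 3 weeks versus untreated controls, in % (0% = like control, 100% = dead).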
# [2] = tested on: Triticum aestivum; experiment: as above; conditions: application rate 20 g/ha
# Outline: as §1
# [3] = tested on: Polygonum convolvulus; experiment: Herbicidal action post-emergence, greenhouse pot test
# Outline: (§2)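 Compounds formulated as wettable powders or emulsion concentrates were applied post-emergence at 80 g/ha or lower to one-leaf plants grown in sandy loam. Percent efficacy relative to untreated controls was assessed visually roughly 3 weeks after treatment.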
# [4] = tested on: Pharbitis purpurea; experiment: as above
# Outline: as §2
# [5] = tested on: Veronica persica; experiment: as above
# Outline: as §2
# [6] = tested on: Setaria viridis; experiment: as above
# Outline: as §2
# [7] = tested on: Alopecurus myosuroides; experiment: as above; conditions: application rate 80 g/ha, scored visually after about 3 weeks vs untreated controls
# Outline: as §2
# [8] = tested on: Viola tricolor; experiment: as above
# Outline: as §2
# [9] = tested on: Stellaria media; experiment: as above
# Outline: as §2
# [10] = tested on: Lolium rigidum; experiment: as above; conditions: application rate 80 g/ha
# Outline: as §2
# [11] = tested on: Amaranthus retroflexus; experiment: as above
# Outline: as §2
# [12] = tested on: Abutilon theophrasti; experiment: as above
# Outline: as §2
# [13] = tested on: Echinochloa crus-galli; experiment: as above
# Outline: as §2
# [14] = tested on: Matricaria inodora; experiment: as above
# Outline: as §2
# [15] = tested on: Matricaria inodora; experiment: Herbicidal action pre-emergence, greenhouse pot test
# Text: Seeds of mono- and dicotyledonous weeds and crop plants were laid out in plastic or organic plant pots and covered with soil. The compounds of the invention formulated in the form of wettable powders (WP) or as emulsion concentrates (EC) were then applied to the surface of the covering soil as an aqueous suspension or emulsion with addition of 0.5% additive at a water application rate equivalent to 600 L/ha. After the treatment, the pots were placed in a greenhouse and kept under good growth conditions for the test plants. After about 3 weeks, the efficacy of the preparations was scored visually as a percentage by comparison with untreated controls. For example, 100% efficacy=plants have died. 0% efficacy=like control plants. Tables B1 to B17 below show the efficacies of selected compounds of the general formula (I) […] aforementioned trial method.
# [16] = tested on: Polygonum convolvulus; experiment: as above
# Text: (§3) Seeds of mono- and dicotyledonous weeds and crop plants were laid out in plastic or organic plant pots and covered with soil. The compounds of the invention formulated in the form of wettable powders (WP) or as emulsion concentrates (EC) were then applied to the surface of the covering soil as an aqueous suspension or emulsion with addition of 0.5% additive at a water application rate equivalent to 600 L/ha. After the treatment, the pots were placed in a greenhouse and kept under good growth conditions for the test plants. After about 3 weeks, the efficacy of the preparations was scored visually as a percentage by comparison with untreated controls. For example, 100% efficacy=plants have died. 0% efficacy=like control plants. Tables B1 to B17 below show the efficacies of selected compounds of the general formula (I) according to tables I.1 to I.50 on various harmful plants and an application rate corresponding to 320 g/ha or lower that were obtained by the aforementioned trial method.
# [17] = tested on: Pharbitis purpurea; experiment: as above
# Text: as §3
# [18] = tested on: Veronica persica; experiment: as above
# Text: as §3
# [19] = tested on: Hordeum murinum; experiment: as above; conditions: application rate 320 g/ha
# Text: as §3
# [20] = tested on: Setaria viridis; experiment: as above
# Text: as §3
# [21] = tested on: Alopecurus myosuroides; experiment: as above; conditions: application rate 320 g/ha
# Text: as §3
# [22] = tested on: Viola tricolor; experiment: as above
# Text: as §3
# [23] = tested on: Stellaria media; experiment: as above
# Text: as §3
# [24] = tested on: Lolium rigidum; experiment: as above; conditions: application rate 320 g/ha
# Text: as §3
# [25] = tested on: Amaranthus retroflexus; experiment: as above
# Text: as §3
# [26] = tested on: Abutilon theophrasti; experiment: as above
# Text: as §3
# [27] = tested on: Cyperus esculentus; experiment: as above; conditions: application rate 320 g/ha
# Text: as §3
# [28] = tested on: Echinochloa crus-galli; experiment: as above; conditions: application rate 320 g/ha
# Text: as §3
# [29] = tested on: Avena fatua; experiment: as above; conditions: application rate 320 g/ha
# Text: as §3
# [30] = tested on: Zea mays; experiment: Crop compatibility post-emergence, greenhouse pot test; conditions: application rate 20 g/ha
# Outline: as §1
SMILES,Triticum aestivum (Efficacy in %) [2] [%],Polygonum convolvulus (Efficacy in %) ([3]; application rate 80 g/ha) [%],Veronica persica (Efficacy in %) ([5]; application rate 80 g/ha) [%],Setaria viridis (Efficacy in %) ([6]; application rate 80 g/ha) [%],Stellaria media (Efficacy in %) ([9]; application rate 80 g/ha) [%],Lolium rigidum (Efficacy in %) [10] [%],Amaranthus retroflexus (Efficacy in %) ([11]; application rate 80 g/ha) [%],Abutilon theophrasti (Efficacy in %) ([12]; application rate 80 g/ha) [%],Echinochloa crus-galli (Efficacy in %) ([13]; application rate 80 g/ha) [%],Matricaria inodora (Efficacy in %) ([14]; application rate 80 g/ha) [%],Matricaria inodora (Efficacy in %) ([15]; application rate 80 g/ha) [%],Polygonum convolvulus (Efficacy in %) ([16]; application rate 80 g/ha) [%],Pharbitis purpurea (Efficacy in %) ([17]; application rate 320 g/ha) [%],Veronica persica (Efficacy in %) ([18]; application rate 320 g/ha) [%],Hordeum murinum (Efficacy in %) [19] [%],Setaria viridis (Efficacy in %) ([20]; application rate 80 g/ha) [%],Stellaria media (Efficacy in %) ([23]; application rate 80 g/ha) [%],Lolium rigidum (Efficacy in %) [24] [%],Cyperus esculentus (Efficacy in %) [27] [%],Echinochloa crus-galli (Efficacy in %) [28] [%],further results
COC(=O)CC(C)OC(=O)C(C)Sc1cc(-n2c(=O)cc(C(F)(F)F)n(C)c2=O)c(F)cc1Cl (stereo not drawn) [I.1-22],20,100,100,100,100,90,100,100,100,100,100,100,100,100,100,100,100,100,90,100,Oryza sativa (Efficacy in %) ([1]; application rate 5 g/ha): 0%; Pharbitis purpurea (Efficacy in %) ([4]; application rate 80 g/ha): 100%; Alopecurus myosuroides (Efficacy in %) [7]: 80%; Viola tricolor (Efficacy in %) ([8]; application rate 80 g/ha): 100%; Alopecurus myosuroides (Efficacy in %) [21]: 80%; Viola tricolor (Efficacy in %) ([22]; application rate 80 g/ha): 100%; Amaranthus retroflexus (Efficacy in %) ([25]; application rate 80 g/ha): 100%; Abutilon theophrasti (Efficacy in %) ([26]; application rate 80 g/ha): 100%
COC(=O)COC(=O)C(C)Sc1cc(-n2c(=O)cc(C(F)(F)F)n(C)c2=O)c(F)cc1Cl (stereo not drawn) [I.1-42],20,–,100,–,–,90,–,–,–,–,100,100,–,–,100,100,100,100,100,100,Oryza sativa (Efficacy in %) ([1]; application rate 20 g/ha): 10%; Polygonum convolvulus (Efficacy in %) ([3]; application rate 20 g/ha): 100%; Pharbitis purpurea (Efficacy in %) ([4]; application rate 20 g/ha): 100%; Setaria viridis (Efficacy in %) ([6]; application rate 20 g/ha): 100%; Viola tricolor (Efficacy in %) ([8]; application rate 20 g/ha): 100%; Stellaria media (Efficacy in %) ([9]; application rate 20 g/ha): 100%; Amaranthus retroflexus (Efficacy in %) ([11]; application rate 20 g/ha): 100%; Abutilon theophrasti (Efficacy in %) ([12]; application rate 20 g/ha): 100%; Echinochloa crus-galli (Efficacy in %) ([13]; application rate 20 g/ha): 100%; Matricaria inodora (Efficacy in %) ([14]; application rate 20 g/ha): 100%; Pharbitis purpurea (Efficacy in %) ([17]; application rate 80 g/ha): 100%; Veronica persica (Efficacy in %) ([18]; application rate 80 g/ha): 100%; Avena fatua (Efficacy in %) [29]: 90%; Alopecurus myosuroides (Efficacy in %) [21]: 90%; Viola tricolor (Efficacy in %) ([22]; application rate 80 g/ha): 100%; Amaranthus retroflexus (Efficacy in %) ([25]; application rate 20 g/ha): 100%; Abutilon theophrasti (Efficacy in %) ([26]; application rate 80 g/ha): 100%
COC(=O)C(C)OC(=O)C(C)Sc1cc(-n2c(=O)cc(C(F)(F)F)n(C)c2=O)c(F)cc1Cl (stereo not drawn) [I.1-72],20,100,100,–,100,–,–,–,100,100,100,100,100,–,80,100,100,–,100,100,Oryza sativa (Efficacy in %) ([1]; application rate 20 g/ha): 10%; Pharbitis purpurea (Efficacy in %) ([4]; application rate 20 g/ha): 100%; Setaria viridis (Efficacy in %) ([6]; application rate 20 g/ha): 100%; Viola tricolor (Efficacy in %) ([8]; application rate 80 g/ha): 100%; Amaranthus retroflexus (Efficacy in %) ([11]; application rate 20 g/ha): 100%; Abutilon theophrasti (Efficacy in %) ([12]; application rate 20 g/ha): 100%; Veronica persica (Efficacy in %) ([18]; application rate 80 g/ha): 100%; Avena fatua (Efficacy in %) [29]: 90%; Viola tricolor (Efficacy in %) ([22]; application rate 80 g/ha): 100%; Amaranthus retroflexus (Efficacy in %) ([25]; application rate 20 g/ha): 100%; Abutilon theophrasti (Efficacy in %) ([26]; application rate 80 g/ha): 100%
CCNC(=O)COC(=O)C(C)Sc1cc(-n2c(=O)cc(C(F)(F)F)n(C)c2=O)c(F)cc1Cl (stereo not drawn) [I.1-183],–,100,–,100,–,100,100,100,100,100,–,–,100,100,90,–,–,90,80,100,Oryza sativa (Efficacy in %) ([1]; application rate 20 g/ha): 20%; Zea mays (Efficacy in %) [30]: 10%; Pharbitis purpurea (Efficacy in %) ([4]; application rate 80 g/ha): 100%; Veronica persica (Efficacy in %) ([5]; application rate 20 g/ha): 100%; Alopecurus myosuroides (Efficacy in %) [7]: 80%; Viola tricolor (Efficacy in %) ([8]; application rate 20 g/ha): 100%; Stellaria media (Efficacy in %) ([9]; application rate 20 g/ha): 100%; Matricaria inodora (Efficacy in %) ([15]; application rate 320 g/ha): 100%; Polygonum convolvulus (Efficacy in %) ([16]; application rate 320 g/ha): 100%; Avena fatua (Efficacy in %) [29]: 90%; Setaria viridis (Efficacy in %) ([20]; application rate 320 g/ha): 100%; Alopecurus myosuroides (Efficacy in %) [21]: 90%; Viola tricolor (Efficacy in %) ([22]; application rate 320 g/ha): 100%; Stellaria media (Efficacy in %) ([23]; application rate 320 g/ha): 100%; Amaranthus retroflexus (Efficacy in %) ([25]; application rate 80 g/ha): 100%; Abutilon theophrasti (Efficacy in %) ([26]; application rate 320 g/ha): 100%
CCOC(=O)CC(C)OC(=O)CSc1cc(-n2c(=O)cc(C(F)(F)F)n(C)c2=O)c(F)cc1Cl (stereo not drawn) [I.8-23],20,–,100,100,100,–,100,100,100,–,100,–,100,100,80,–,100,90,90,100,Oryza sativa (Efficacy in %) ([1]; application rate 5 g/ha): 20%; Polygonum convolvulus (Efficacy in %) ([3]; application rate 20 g/ha): 100%; Pharbitis purpurea (Efficacy in %) ([4]; application rate 20 g/ha): 100%; Viola tricolor (Efficacy in %) ([8]; application rate 20 g/ha): 100%; Matricaria inodora (Efficacy in %) ([14]; application rate 20 g/ha): 100%; Polygonum convolvulus (Efficacy in %) ([16]; application rate 320 g/ha): 100%; Setaria viridis (Efficacy in %) ([20]; application rate 320 g/ha): 100%; Viola tricolor (Efficacy in %) ([22]; application rate 320 g/ha): 100%; Amaranthus retroflexus (Efficacy in %) ([25]; application rate 80 g/ha): 100%; Abutilon theophrasti (Efficacy in %) ([26]; application rate 320 g/ha): 100%
